Where no end group is shown, it is not given here.
Key:
[1] = Calcein-encapsulated liposome lysis assay; assay type: biochemical; conditions: PC, 20 µM
Method: Liposomes were prepared using natural chicken egg L-α-phophatidylcholine and L-α-phosphatidic acid dissolved in chloroform (Avanti Polar Lipids), and liposome pulldowns (at pH 7.4) and calcein-encapsulated liposome lysis assays were performed as previously described. For liposome pulldowns performed at pH 5.5, the same protocol was used with minor variations. The desiccated lipid films were resuspended in 20 mM MES pH 7.4 and were washed in the same buffer during the centrifugation process. After the final wash step, the liposome pellets were resuspended in 20 mM MES pH 5.5 and incubated with CpoBD13 or mutants thereof (also prepared in the same acidic buffer).

U937 cells [2] = test: Propidium iodide uptake assay in serum-free medium; assay type: cell-based, human
Method: For propidium iodide uptake assays in serum-free medium, U937 cells (after centrifugation at 300 g, 5 min) were washed once in serum-free RPMI-1640, pelleted again (as previous centrifugation) and resuspended in serum-free media. […] PI (diluted in ice-cold PBS) was added to a final concentration of 1 µg/mL before analysis by flow cytometry using a BD FACSCanto II with FACSDiva 8.0.1 (BD Biosciences).

U937 cells [3] = test: MTT/MTS cell viability assay; assay type: cell-based, human; conditions: 48 h, at the assessed concentrations
From the text: (§1) Human epithelial cervical cancer (HeLa, ATCC, CCL-2), prostate cancer (PC3, ATCC, CRL-1435) and histiocytic lymphoma (U937, ATCC, CRL-1593.2) cells were obtained from the American Type Culture Collection (Gaithersburg, Maryland) and cultured in RPMI-1640 medium (Thermo Fisher Scientific, Waltham, MA) supplemented with 5–10% (v/v) foetal bovine serum (FBS), 100 U/mL penicillin and 100 U/mL streptomycin (Invitrogen, Carlsbad, CA). Adult human dermal fibroblasts (AHDF, Lonza, CC-2511) cells were obtained from Lonza (Basel, Switzerland) and cultured in Dulbecco’s Modified Eagle Medium (DMEM) (Thermo Fisher Scientific) supplemented with 10% (v/v) FBS, 100 U/mL penicillin and 100 U/mL streptomycin. Human umbilical vein epithelial (HUVEC, Lonza, CC-2519) cells were obtained from Lonza and cultured in EBM-2 medium supplemented with EGM-2 SingleQuots (Lonza). All cell lines were maintained at 37 °C in a humidified incubator with 5% CO2.
(§2) Cell viability assays were performed using MTT/MTS as previously described[8].

PC3 cells = test: MTT/MTS cell viability assay; assay type: cell-based, human; conditions: 48 h, at the assessed concentrations
From the text: as §1, §2

From the text for AHDF cells: as §1, §2
From the text for HUVEC cells: as §1, §2

Which “Lysis (%)” value ([1]; 6 min, replicate 1) does the source give for “CpoBD13: saltwater crocodile β-defensin 13, histidine-rich, three disulphide bonds, recombinantly expressed in Pichia pastoris (NGSYYSTLQCRNNHGHCRRLCFHGEQWIGNCNGRHQHCCK; disulfide (positions not given here); also: three disulphide bonds, pairings not given here)” here?
The value was 48.9071%.

What about the “Lysis (%)” value ([1]; 6 min, replicate 2) of the same substance?
The value was 41.9281%.

And the “Lysis (%)” value ([1]; 6 min, replicate 3)?
The value was 41.2305%.

And the “Lysis (%)” value ([1]; 8 min, replicate 1)?
Its value is 49.7649%.

And the “Lysis (%)” value ([1]; 8 min, replicate 2)?
Its value is 44.0474%.

What about the “Lysis (%)” value ([1]; 8 min, replicate 3) of the same substance?
The value was 43.6445%.

And the “Lysis (%)” value ([1]; 10 min, replicate 1)?
The value was 51.7674%.

What about the “Lysis (%)” value ([1]; 10 min, replicate 2) of the same substance?
Its value is 44.7293%.

And the “Lysis (%)” value ([1]; 10 min, replicate 3)?
Its value is 45.2138%.

What about the “Lysis (%)” value ([1]; 12 min, replicate 1) of the same substance?
The value was 52.4795%.

What about the “Lysis (%)” value ([1]; 12 min, replicate 2) of the same substance?
Its value is 46.5217%.

And the “Lysis (%)” value ([1]; 12 min, replicate 3)?
Its value is 46.4513%.

What about the “Lysis (%)” value ([1]; 14 min, replicate 1) of the same substance?
Its value is 52.8236%.

And the “Lysis (%)” value ([1]; 14 min, replicate 2)?
Its value is 47.6803%.

And the “Lysis (%)” value ([1]; 14 min, replicate 3)?
The value was 47.9678%.

And the “Lysis (%)” value ([1]; 16 min, replicate 1)?
Its value is 54.9403%.

What about the “Lysis (%)” value ([1]; 16 min, replicate 2) of the same substance?
The value was 49.0986%.

What about the “Lysis (%)” value ([1]; 16 min, replicate 3) of the same substance?
Its value is 49.0311%.

And the “Lysis (%)” value ([1]; 18 min, replicate 1)?
Its value is 53.0929%.

And the “Lysis (%)” value ([1]; 18 min, replicate 2)?
Its value is 50.179%.

And the “Lysis (%)” value ([1]; 18 min, replicate 3)?
Its value is 50.039%.

And the “Lysis (%)” value ([1]; 20 min, replicate 1)?
The value was 53.041%.

What about the “Lysis (%)” value ([1]; 20 min, replicate 2) of the same substance?
Its value is 50.8527%.

And the “Lysis (%)” value ([1]; 20 min, replicate 3)?
The value was 51.0255%.

What about the “Lysis (%)” value ([1]; 22 min, replicate 1) of the same substance?
The value was 54.0904%.

What about the “Lysis (%)” value ([1]; 22 min, replicate 2) of the same substance?
The value was 52.2587%.

What about the “Lysis (%)” value ([1]; 22 min, replicate 3) of the same substance?
Its value is 51.6328%.

And the “Lysis (%)” value ([1]; 24 min, replicate 1)?
The value was 54.3794%.

What about the “Lysis (%)” value ([1]; 24 min, replicate 2) of the same substance?
Its value is 53.0954%.

And the “Lysis (%)” value ([1]; 24 min, replicate 3)?
The value was 52.0331%.

What about the “Lysis (%)” value ([1]; 26 min, replicate 1) of the same substance?
The value was 55.6275%.

And the “Lysis (%)” value ([1]; 26 min, replicate 2)?
The value was 53.8088%.

What about the “Lysis (%)” value ([1]; 26 min, replicate 3) of the same substance?
The value was 52.9179%.

What about the “Lysis (%)” value ([1]; 28 min, replicate 1) of the same substance?
The value was 53.4363%.

And the “Lysis (%)” value ([1]; 28 min, replicate 2)?
The value was 55.2629%.

What about the “Lysis (%)” value ([1]; 28 min, replicate 3) of the same substance?
Its value is 53.0065%.

And the “Lysis (%)” value ([1]; 30 min, replicate 1)?
The value was 54.3884%.

And the “Lysis (%)” value ([1]; 30 min, replicate 2)?
Its value is 55.3559%.

What about the “Lysis (%)” value ([1]; 30 min, replicate 3) of the same substance?
Its value is 54.0992%.

And the “PI positivity (%)” value (U937 cells [2]; 1.5625 μM CpoBD13, replicate 1)?
Its value is 3.27%.

What about the “PI positivity (%)” value (U937 cells [2]; 1.5625 μM CpoBD13, replicate 2) of the same substance?
Its value is 9.7%.

And the “PI positivity (%)” value (U937 cells [2]; 1.5625 μM CpoBD13, replicate 3)?
The value was 3.5%.

And the “PI positivity (%)” value (U937 cells [2]; 3.125 μM CpoBD13, replicate 1)?
The value was 2.47%.

And the “PI positivity (%)” value (U937 cells [2]; 3.125 μM CpoBD13, replicate 2)?
Its value is 6.8%.

And the “PI positivity (%)” value (U937 cells [2]; 3.125 μM CpoBD13, replicate 3)?
Its value is 4.1%.

And the “PI positivity (%)” value (U937 cells [2]; 6.25 μM CpoBD13, replicate 1)?
Its value is 1.67%.

What about the “PI positivity (%)” value (U937 cells [2]; 6.25 μM CpoBD13, replicate 2) of the same substance?
The value was 10.8%.

And the “PI positivity (%)” value (U937 cells [2]; 6.25 μM CpoBD13, replicate 3)?
Its value is 1%.

And the “PI positivity (%)” value (U937 cells [2]; 12.5 μM CpoBD13, replicate 1)?
The value was 3.27%.

And the “PI positivity (%)” value (U937 cells [2]; 12.5 μM CpoBD13, replicate 2)?
The value was 9.1%.

What about the “PI positivity (%)” value (U937 cells [2]; 12.5 μM CpoBD13, replicate 3) of the same substance?
The value was 14.3%.

What about the “PI positivity (%)” value (U937 cells [2]; 25 μM CpoBD13, replicate 1) of the same substance?
Its value is 2.27%.

And the “PI positivity (%)” value (U937 cells [2]; 25 μM CpoBD13, replicate 2)?
Its value is 13.1%.

What about the “PI positivity (%)” value (U937 cells [2]; 25 μM CpoBD13, replicate 3) of the same substance?
The value was 14.3%.

And the “PI positivity (%)” value (U937 cells [2]; 50 μM CpoBD13, replicate 1)?
The value was 2.77%.

And the “PI positivity (%)” value (U937 cells [2]; 50 μM CpoBD13, replicate 2)?
The value was 20.5%.

And the “PI positivity (%)” value (U937 cells [2]; 50 μM CpoBD13, replicate 3)?
Its value is 18.6%.

What about the “PI positivity (%)” value (U937 cells [2]; 100 μM CpoBD13, replicate 1) of the same substance?
Its value is 15.77%.

What about the “PI positivity (%)” value (U937 cells [2]; 100 μM CpoBD13, replicate 2) of the same substance?
Its value is 6.8%.

What about the “PI positivity (%)” value (U937 cells [2]; 100 μM CpoBD13, replicate 3) of the same substance?
The value was 23%.

What about the “membrane permeabilisation (PI uptake)” value (U937 cells [2]; serum-free media, 30 min, 37°C) of the same substance?
The value was “unable to effectively permeabilise”.

And the “effect on cell viability” value (U937 cells [3])?
Its value is “did not affect the viability”.

What about the “effect on cell viability” value (PC3 cells) of the same substance?
Its value is “did not affect the viability”.

What about the “effect on cell viability” value (HUVEC cells) of the same substance?
The value was “did not affect the viability”.

And the “effect on cell viability” value (AHDF cells)?
The value was “did not affect the viability”.
